Reference: patent US9499550B2 (BRISTOL-MYERS SQUIBB COMPANY, priority 2012, dated 2016)
Where two headings read alike, the source gives them in different places.

Columns and labels:
[1] = tested on: HCV genotype 1a (H77 strain) replicon in HUH-7 cells; assay: HCV replicon luciferase reporter assay, genotype 1a; format: cell-based; details: Hepatitis C virus, Huh-7, 72 h, 3 days incubation
Outline: (§1)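 Replicon inhibition for both genotypes was measured as Renilla luciferase signal (EnduRen, 7.5 μM final, 2 h) after 3-day, 37° C exposure of replicon-bearing HUH-7 cells in 4% FCS DMEM, 0.5% DMSO. The 1b construct carries S1179I; the 1a H77 construct carries P1496L and S2204I. Twenty-point, 3-fold dilutions were fitted four-parametrically for EC50, and CC50 was taken from multiplexed Cell Titer-Blue.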

[2] = tested on: HCV genotype 1b (Con1) replicon in HUH-7 cells; assay: HCV replicon luciferase reporter assay, genotype 1b; format: cell-based; details: Hepatitis C virus, Huh-7, 72 h, 3 days incubation
Outline: as §1

[3] = HCV genotype 1a replicon luciferase, read-out: LE_1a (EC50, range)
[4] = HCV genotype 1b replicon luciferase, read-out: LE_1b (EC50, range)
[5] = HCV genotype 1a replicon luciferase assay, range class, read-out: LE_1a (EC50, range)
[6] = HCV genotype 1b replicon luciferase assay, range class, read-out: LE_1b (EC50, range)

COc1cc2cc(-c3ccc(OC(C)C)cc3)nc(O[C@@H]3C[C@H]4C(=O)N[C@]5(C(=O)NS(=O)(=O)C6CC6)C[C@H]5/C=C\CC[C@H](C)C[C@@H](C)[C@H](NC(=O)OC(C)(C)C(F)(F)F)C(=O)N4C3)c2cc1F [Compound 3189, 1,1,1-trifluoro-2-methylpropan-2-yl((2R,6S,7R,9S,13aS,14aR,16aS,Z)-14a-((cyclopropylsulfonyl)carbamoyl)-2-((7-fluoro-3-(4-isopropoxyphenyl)-6-methoxyisoquinolin-1-yl)oxy)-7,9-dimethyl-5,16-dioxo-1,2,3,5,6,7,8,9,10,11,13a,14,14a,15,16,16a-hexadecahydrocyclopropa[e]pyrrolo[1,2-a][1,4]diazacyclopentadecin-6-yl)carbamate]
EC50 [1, 3]: 4.82 to 103 nM | EC50 [2, 4]: < 5.46 nM

CCOc1ccc2c(O[C@@H]3C[C@H]4C(=O)N[C@]5(C(=O)NS(=O)(=O)C6(C)CC6)C[C@H]5/C=C\CC[C@@H](C)C[C@@H](C)[C@H](NC(=O)O[C@H](C)C(F)(F)F)C(=O)N4C3)nccc2c1 [Compound 5142, (R)-1,1,1-trifluoropropan-2-yl ((2R,6S,7R,9R,13aS,14aR,16aS,Z)-2-((6-ethoxyisoquinolin-1-yl)oxy)-7,9-dimethyl-14a-(((1-methylcyclopropyl)sulfonyl)carbamoyl)-5,16-dioxo-1,2,3,5,6,7,8,9,10,11,13a,14,14a,15,16,16a-hexadecahydrocyclopropa[e]pyrrolo[1,2-a][1,4]diazacyclopentadecin-6-yl)carbamate]
EC50 [1, 3]: < 5.46 nM | EC50 [2, 4]: < 5.46 nM

COc1cnc(O[C@@H]2C[C@H]3C(=O)N[C@]4(C(=O)NS(=O)(=O)C5(CF)CC5)C[C@H]4/C=C\CC[C@@H](C)C[C@@H](C)[C@H](NC(=O)OC4(C)COC4)C(=O)N3C2)c2ccccc12 [Compound 1045, 3-methyloxetan-3-yl ((2R,6S,7R,9R,13aS,14aR,16aS,Z)-14a-(((1-(fluoromethyl)cyclopropyl)sulfonyl)carbamoyl)-2-((4-methoxyisoquinolin-1-yl)oxy)-7,9-dimethyl-5,16-dioxo-1,2,3,5,6,7,8,9,10,11,13a,14,14a,15,16,16a-hexadecahydrocyclopropa[e]pyrrolo[1,2-a][1,4]diazacyclopentadecin-6-yl)carbamate]
EC50 [1, 5]: < 5.46 nM | EC50 [2, 6]: < 5.46 nM

COc1cc2c(OC)cnc(O[C@@H]3C[C@H]4C(=O)N[C@]5(C(=O)NS(=O)(=O)C6(CF)CC6)C[C@H]5/C=C\CC[C@@H](C)C[C@@H](C)[C@H](NC(=O)c5c(F)cc(F)cc5F)C(=O)N4C3)c2cc1F [Compound 4117, (2R,6S,7R,9R,13aS,14aR,16aS,Z)-2-(7-fluoro-4,6-dimethoxyisoquinolin-1-yloxy)-N-(1-(fluoromethyl)cyclopropylsulfonyl)-7,9-dimethyl-5,16-dioxo-6-(2,4,6-trifluorobenzamido)-1,2,3,5,6,7,8,9,10,11,13a,14,14a,15,16,16a-hexadecahydrocyclopropa[e]pyrrolo[1,2-a][1,4]diazacyclopentadecine-14a-carboxamide]
EC50 [1, 3]: < 5.46 nM | EC50 [2, 4]: < 5.46 nM

C[C@@H]1CC/C=C\[C@@H]2C[C@@]2(C(=O)NS(=O)(=O)C2(C)CC2)NC(=O)[C@@H]2C[C@@H](Oc3nc4c(c5ccccc35)CCCO4)CN2C(=O)[C@@H](NC(=O)OC(C)(C)C(C)(F)F)[C@H](C)C1 [Compound 6048, 3,3-difluoro-2-methylbutan-2-yl((2R,6S,7R,9R,13aS,14aR,16aS,Z)-2-((2,3-dihydro-1H-pyrano[2,3-c]isoquinolin-6-yl)oxy)-7,9-dimethyl-14a-(((1-methylcyclopropyl)sulfonyl)carbamoyl)-5,16-dioxo-1,2,3,5,6,7,8,9,10,11,13a,14,14a,15,16,16a-hexadecahydrocyclopropa[e]pyrrolo[1,2-a][1,4]diazacyclopentadecin-6-yl)carbamate]
EC50 [1, 3]: 1.01 to 5 nM | EC50 [2, 4]: 0.1 to 0.5 nM

[2H]C([2H])([2H])C(OC(=O)N[C@@H]1C(=O)N2C[C@H](Oc3nccc4cc(OC(C)C)ccc34)C[C@H]2C(=O)N[C@]2(C(=O)NS(=O)(=O)C3CC3)C[C@H]2/C=C\CC[C@H](C)C[C@H]1C)(C([2H])([2H])[2H])C([2H])([2H])[2H] [Compound 5154, 1,1,1,3,3,3-hexadeutero-2-(trideuteromethyl)propan-2-yl((2R,6S,7R,9S,13aS,14aR,16aS,Z)-14a-((cyclopropylsulfonyl)carbamoyl)-2-((6-isopropoxyisoquinolin-1-yl)oxy)-7,9-dimethyl-5,16-dioxo-1,2,3,5,6,7,8,9,10,11,13a,14,14a,15,16,16a-hexadecahydrocyclopropa[e]pyrrolo[1,2-a][1,4]diazacyclopentadecin-6-yl)carbamate]
EC50 [1, 3]: 4.82 to 103 nM | EC50 [2, 4]: 4.82 to 103 nM

COc1ccc2c(O[C@@H]3C[C@H]4C(=O)N[C@]5(C(=O)NS(=O)(=O)C6CC6)C[C@H]5/C=C\CC[C@@H](C)C[C@@H](C)[C@H](NC(=O)OC(C)(C)C(F)(F)F)C(=O)N4C3)nc(-c3ccc(OC(C)C)cc3)cc2c1 [Compound 4027]
EC50 ([1]; GETYPE1A, HCV genotype 1a replicon luciferase, read-out: LE_1a (EC50, range)): < 5.46 nM | EC50 ([2]; GETYPE1B, HCV genotype 1b replicon luciferase, read-out: LE_1b (EC50, range)): < 5.46 nM

CC[C@@H]1C[C@H](C)CC/C=C\[C@@H]2C[C@@]2(C(=O)NS(=O)(=O)C2CC2)NC(=O)[C@@H]2C[C@@H](Oc3nc4ccc(OC)cc4nc3N(C)C)CN2C(=O)[C@H]1NC(=O)OC(C)(C)C [Compound 4304, tert-butyl ((2R,6S,7R,9R,13aS,14aR,16aS,Z)-14a-((cyclopropylsulfonyl)carbamoyl)-2-((3-(dimethylamino)-6-methoxyquinoxalin-2-yl)oxy)-7-ethyl-9-methyl-5,16-dioxo-1,2,3,5,6,7,8,9,10,11,13a,14,14a,15,16,16a-hexadecahydrocyclopropa[e]pyrrolo[1,2-a][1,4]diazacyclopentadecin-6-yl)carbamate]
EC50 [1, 3]: 35 to 620 nM | EC50 [2, 4]: 5.01 to 35 nM

COc1ccc2c(O[C@@H]3C[C@H]4C(=O)N[C@]5(C(=O)NS(=O)(=O)C6CC6)C[C@H]5/C=C\CC[C@H](C)C[C@@H](C)[C@H](NC(=O)O[C@@H]5C[C@@H]6C[C@@H]6C5)C(=O)N4C3)nc(N3CCOCC3)cc2c1 [Compound 3104, (1R,3r,5S)-bicyclo[3.1.0]hexan-3-yl((2R,6S,7R,9S,13aS,14aR,16aS,Z)-14a-((cyclopropylsulfonyl)carbamoyl)-2-((6-methoxy-3-morpholinoisoquinolin-1-yl)oxy)-7,9-dimethyl-5,16-dioxo-1,2,3,5,6,7,8,9,10,11,13a,14,14a,15,16,16a-hexadecahydrocyclopropa[e]pyrrolo[1,2-a][1,4]diazacyclopentadecin-6-yl)carbamate]
EC50 [1, 5]: 4.82 to 103 nM | EC50 [2, 6]: 4.82 to 103 nM

COCCn1nc(O[C@@H]2C[C@H]3C(=O)N[C@]4(C(=O)NS(=O)(=O)C5CC5)C[C@H]4/C=C\CC[C@H](C)C[C@@H](C)[C@H](NC(=O)OC(C)(C)C)C(=O)N3C2)c2ccccc2c1=O [Compound 1007, tert-butyl ((2R,6S,7R,9S,13aS,14aR,16aS,Z)-14a-((cyclopropylsulfonyl)carbamoyl)-2-((3-(2-methoxyethyl)-4-oxo-3,4-dihydrophthalazin-1-yl)oxy)-7,9-dimethyl-5,16-dioxo-1,2,3,5,6,7,8,9,10,11,13a,14,14a,15,16,16a-hexadecahydrocyclopropa[e]pyrrolo[1,2-a][1,4]diazacyclopentadecin-6-yl)carbamate]
EC50 [1, 5]: > 87.4 nM | EC50 ([1]; HCV genotype 1a replicon luciferase assay, read-out: LE_1a (EC50)): ≥ 1000 nM | EC50 [2, 6]: > 87.4 nM | EC50 ([2]; HCV genotype 1b replicon luciferase assay, read-out: LE_1b (EC50)): 438 nM

COc1cc(F)cc2c(O[C@@H]3C[C@H]4C(=O)N[C@]5(C(=O)NS(=O)(=O)C6(CF)CC6)C[C@H]5/C=C\CC[C@H](C)C[C@@H](C)[C@H](NC(=O)OC(C)(C)C(C)(F)F)C(=O)N4C3)nccc12 [Compound 3179, 3,3-difluoro-2-methylbutan-2-yl((2R,6S,7R,9S,13aS,14aR,16aS,Z)-2-((7-fluoro-5-methoxyisoquinolin-1-yl)oxy)-14a-(((1-(fluoromethyl)cyclopropyl)sulfonyl)carbamoyl)-7,9-dimethyl-5,16-dioxo-1,2,3,5,6,7,8,9,10,11,13a,14,14a,15,16,16a-hexadecahydrocyclopropa[e]pyrrolo[1,2-a][1,4]diazacyclopentadecin-6-yl)carbamate]
EC50 [1, 5]: 4.82 to 103 nM | EC50 [2, 6]: 4.82 to 103 nM

C[C@H]1CC/C=C\[C@@H]2C[C@@]2(C(=O)NS(=O)(=O)C2(C)CC2)NC(=O)[C@@H]2C[C@@H](Oc3nccc4c5c(ccc34)N(C)CCO5)CN2C(=O)[C@@H](NC(=O)NC(C)(C)C)[C@H](C)C1 [Compound 5301, (2R,6S,7R,9S,13aS,14aR,16aS,Z)-6-(3-(tert-butyl)ureido)-7,9-dimethyl-2-((4-methyl-3,4-dihydro-2H-[1,4]oxazino[2,3-f]isoquinolin-7-yl)oxy)-N-((1-methylcyclopropyl)sulfonyl)-5,16-dioxo-1,2,3,5,6,7,8,9,10,11,13a,14,14a,15,16,16a-hexadecahydrocyclopropa[e]pyrrolo[1,2-a][1,4]diazacyclopentadecine-14a-carboxamide]
EC50 [1, 3]: 4.82 to 103 nM | EC50 [2, 4]: < 5.46 nM
